Measurements as given in US10561638B2, “Methods for treating dependence” (Biotie Therapies, Inc., priority 2007, dated 2020).
“Also recorded” adds a separate entry of the source.

Key:
[1] = in vivo
Method: The pharmacokinetics of nepicastat after a single 40 mg dose was compared in men and women.

[2] = biological target: protein kinase (non-selective); assay: Enzyme selectivity assay; assay type: biochemical
[3] = system: tissue norepinephrine and dopamine levels; assay: Tissue catecholamines in Sprague-Dawley rats after 10 days b.i.d. dosing; assay type: in vivo; conditions: for dopamine/norepinephrine ratio vs vehicle: 2.0 and 6.2 mg/kg b.i.d., day 10, hydrochloride; for norepinephrine levels vs vehicle: 2.0 and 6.2 mg/kg
Method: Male Sprague-Dawley rats, weighing 180-200 grams, were fed an iodine deficient diet (Purina, 5891C, Lot 1478, 0.066±0.042 mg iodine/kg sample) ad libitum 14 days prior to treatment. Animals were weighed and randomly assigned to one of the following treatment groups (n=12 per group): nepicastat at 2.0 mg/kg, nepicastat at 6.2 mg/kg, Methimazole at 1 mg/kg, or vehicle at 1 ml/kg. Each group of rats was dosed orally in the evening and the following morning, approximately 12 hours apart, for 10 consecutive days.
At four hours after the second dose, on day 10, rats were anesthetized with halothane, decapitated, and the cortex, striatum, and mesenteric artery were harvested and weighed. Tissue samples were not harvested from the methimazole groups as they only served as positive controls for determination of thyroid function. The mesenteric artery, cortex, and striatum were immediately placed in 0.4 M iced perchloric acid and analyzed for norepinephrine and dopamine levels the same day using HPLC.
To statistically evaluate changes in T3 and T4 levels, a change from baseline was calculated from the day −3 time point. A non-parametric two-way within subject analysis of variance (ANOVA) was conducted. Also a one-way ANOVA was performed to detect if a significant difference from control occurred. Pairwise analyses between controls and each treatment group were carried out using Fisher's LSD strategy to control the experiment-wise error rate. For statistical analysis of catecholamine levels, a one-way ANOVA with factor DOSE was performed. Pairwise analyses between treated and controls at each dose were carried out using Fisher's LSD strategy to control the experiment-wise error rate.

[4] = system: left ventricle norepinephrine and dopamine levels; assay: Left ventricle catecholamines after two i.v. doses; assay type: in vivo, Sprague-Dawley rats; conditions: 15 mg/kg iv x2, left ventricle
Method: The purpose of this study was to determine the effects of intravenous administration of nepicastat (hereafter referred to as nepicastat) on the levels of dopamine and norepinephrine in the left ventricle in Sprague-Dawley rats. Animals received two intravenous (iv) administrations, 12 hours apart, of either vehicle (75% propylene glycol+25% DMSO; 1.0 ml/kg) or 15 mg/kg of nepicastat. Tissue norepinephrine and dopamine levels were measured six hours after the last compound administration.
Sixteen to 17 week old male Sprague-Dawley rats, weighing 300-400 grams, were allowed food and water ad libitum. Animals were weighed and randomly assigned, the afternoon before the study, to one of the following treatment groups (n=10 per group): vehicle (1.0 ml/kg) or nepicastat at 15 mg/kg.
Each rat was dosed iv in the tail vein the afternoon before harvest. The dosing was repeated 12 hours later the following morning. Six hours after the final administration rats were anesthetized with halothane, decapitated, and the left ventricle was rapidly harvested and weighed. The ventricle was placed in 1.0 ml iced 0.4 M perchloric acid. Tissues were immediately frozen in liquid nitrogen and stored at −70° C. Tissue dopamine and norepinephrine concentrations were assayed by high performance liquid chromatography using electrochemical detection.
A one-way analysis of variance (ANOVA) with a main effect for treatment was performed for norepinephrine. A Kruskal-Wallis was performed for dopamine and their ratio primarily due to heterogeneous variances among treatment groups. Subsequent pairwise comparisons between nepicastat treated rats and vehicle were performed using Fisher's LSD test. A Bonferroni adjustment was performed on all p-values to ensure an overall experiment-wise type 1 error rate of 5%.

[5] = system: mesenteric artery catecholamines and sympathetically-evoked responses; assay: Anesthetized beagle dogs, 30 mg/kg intraduodenally; assay type: in vivo
[6] = system: norepinephrine and dopamine levels; assay: Cortex and mesenteric artery catecholamines in SHRs after 7 and 25 days; assay type: in vivo, spontaneous hypertensive rats
Method: Nepicastat at 1 and 10 mg/kg was prepared in terms of the free base. The weighings were dissolved in vehicle (dH2O) to yield oral doses that could be administered in a volume of 10.0 ml/kg.
Male spontaneous hypertensive rats (SHRs), 16-17 weeks old at the onset of the study, were used. Animals were allowed food and water ad libitum. Animals were randomly assigned to one of the following treatment groups: oral administration of nepicastat at 10 mg/kg, 1 mg/kg, or a vehicle group of deionized water at 10 ml/kg. Rats were dosed orally once a day for 7 or 25 days with vehicle, 1 mg/kg or 10 mg/kg nepicastat (n=8) except for day 25, where n=9. On day 7, four hours after compound administration, animals were anesthetized with halothane, decapitated and the cortex and mesenteric artery were harvested, weighed, and analyzed from 24 rats (n=8/treatment group). The remaining […] continued receiving oral administration with one of the three treatments for the following 18 days. At 4 hours after the last treatment the mesenteric artery and cortex from this group were harvested, weighed, and analyzed for catecholamine levels.
Statistically, the three treatments were compared at each time period (7 or 25 days) using a non-parametric one-way analysis of variance (ANOVA). Pairwise comparisons of each treatment with control were performed using Fisher's LSD strategy on the means, adjusted for differences in sample size, to control the experiment-wise error rate. Each variable was analyzed separately. For FIGS. 6-11, *, p<0.05 and **, P<0.01.

[7] = Pilot observation studies in rats, acute and repeated oral administration
Method: Similarly, in a separate study, physostigmine (1, 3, 10 or 30 mg/kg p.o.) or vehicle were administered acutely to groups of 8 rats.
In pilot studies of repeated administration, nepicastat (100 mg/kg p.o.) or vehicle was administered twice daily (06:00 and 18:00 h) for 10 days (once on day 11) to groups of 8 rats. The weights of the animals were monitored throughout the study and, on day 5, the animals were observed ‘blind’ by an independent observer in order to assess any overt behavioural/physiological effects following repeated administration. In a separate study, groups of 8 rats received vehicle or physostigmine (0.3, 1, 3 or 10 mg/kg p.o.) using the same dosing schedule. The weights of the animals were monitored throughout the study.

[8] = cerebral cortex, 7 days, 10 mg/kg
[9] = mesenteric artery, 7 and 25 days, 10 mg/kg

Structure (SMILES): Cl.NCc1c[nH]c(=S)n1[C@H]1CCc2c(F)cc(F)cc2C1 [nepicastat, (S)-5-Aminomethyl-1-(5,7-difluoro-1,2,3,4-tetrahydronaphth-2-yl)-2,3-dihydro-2-thioxo-1H-imidazole hydrochloride]
- AUC, greater in women than in men ([1]; both, human, 40 mg): approximately 43%
- Cmax, greater in women than in men ([1]; both, human, 40 mg): approximately 23%
- Tmax for the radioactivity in plasma ([1]; human): 1 to 2 h
- terminal T1/2 for total radioactivity in plasma ([1]; human): ~100 h
- Cmax or AUC, fast vs slow acetylator phenotype [1]: No significant differences
- T½, women vs men [1]: longer in women than in men
- accumulation with multiple dosing [1]: no significant accumulation
- IC50 [2]: > 10 µM
- dopamine levels vs vehicle ([3]; all three tissues, 2.0 or 6.2 mg/kg): not significantly (p>0.05) different
- dopamine/norepinephrine ratio vs vehicle ([3]; cortex (and striatum)): not in the cortex; also recorded: not significantly (p>0.05) different
- norepinephrine levels vs vehicle ([3]; cortex): not significantly (p>0.05) different
- norepinephrine levels vs vehicle ([3]; mesenteric artery): significantly (p<0.05) lower
- dopamine/norepinephrine ratio vs vehicle ([3]; mesenteric artery): significantly raised; also recorded: significantly (p<0.05) higher
- norepinephrine levels vs vehicle ([3]; striatum): marginally (p<0.10) lower
- decrease in norepinephrine levels [4]: 51%
- increase in dopamine levels [4]: 472%
- increase in dopamine/norepinephrine ratio [4]: 1117%
- responses to renal nerve stimulation and carotid artery occlusion ([5]; 30 mg/kg intraduodenally, up to 5 hours): did not significantly inhibit
- mesenteric artery catecholamines ([5]; 5 hours after 30 mg/kg intraduodenally): significant decrease in norepinephrine levels and an increase in the dopamine/norepinephrine ratio
- norepinephrine levels and dopamine/norepinephrine ratio vs vehicle ([6]; cerebral cortex, 7 days, 1 mg/kg): no significant (p>0.05) differences
- dopamine/norepinephrine ratio vs vehicle [6, 8]: significantly (p<0.05) higher
- norepinephrine levels vs vehicle [6, 8]: significantly (p<0.1) lower
- dopamine levels vs vehicle ([6]; cerebral cortex, 7 days, 1 or 10 mg/kg): no significant (p>0.05) differences
- dopamine levels vs vehicle ([6]; cortex, 25 days, 1 mg/kg): significantly (p<0.05) higher
- dopamine/norepinephrine ratio vs vehicle ([6]; cortex, 25 days, 1 mg/kg): significantly (p<0.01) greater
- dopamine/norepinephrine ratio vs vehicle ([6]; cortex, 25 days, 10 mg/kg): significantly greater (p<0.05)
- norepinephrine levels vs control ([6]; cortex, 25 days, either dose): not significantly (p.>0.05) different
- all parameters vs control ([6]; mesenteric artery, 1 mg/kg): None of the parameters measured were significantly (p<0.05) different
- dopamine levels and dopamine/norepinephrine ratios vs vehicle [6, 9]: significantly higher dopamine levels and dopamine/norepinephrine ratios
- norepinephrine levels vs vehicle [6, 9]: no differences in norepinephrine levels
- overt effects of repeated administration ([7]; nepicastat 100 mg/kg p.o. twice daily): no overt effects
- irritability when handled ([7]; nepicastat 100 mg/kg p.o. twice daily, 11 days): more irritable than controls
- mean loss in body weight ([7]; nepicastat 100 mg/kg p.o. twice daily, after 11 days): 28 g
- overt behavioural/physiological changes ([7]; nepicastat 30 or 100 mg/kg p.o. acutely): did not induce any overt behavioural/physiological changes
